# Results taken from ChEMBL document CHEMBL1132929 (J Med Chem, 2000).
# Peptide text beside a SMILES is read from it.
# Biological target: Substance-P receptor (Rana catesbeiana)
# Assay: SP-induced [Ca2+] mobilization in CHO cells expressing bullfrog Tachykinin receptor 1
row,EC50 [µM],SMILES
1,0.014,CSCC[C@H](NC(=O)[C@H](CC(C)C)NC(=O)CNC(=O)[C@H](Cc1ccc(O)cc1)NC(=O)[C@H](Cc1ccccc1)NC(=O)[C@H](CO)NC(=O)[C@H](CC(=O)O)NC(=O)[C@H](CO)NC(=O)[C@H](CCCCN)NC(=O)[C@@H](N)Cc1ccc(O)cc1)C(N)=O (H-YKSDSFYGLM-NH2)
2,0.0006,CSCC[C@H](NC(=O)[C@H](CC(C)C)NC(=O)CNC(=O)[C@H](Cc1ccc(O)cc1)NC(=O)[C@H](Cc1ccccc1)NC(=O)[C@H](CCCNC(=N)N)NC(=O)[C@H](CC(=O)O)NC(=O)[C@@H]1CCCN1C(=O)[C@H](CO)NC(=O)[C@@H]1CCCN1C(=O)[C@@H](N)CCCCN)C(N)=O (H-KPSPDRFYGLM-NH2)
3,0.014,CC[C@H](C)[C@H](NC(=O)[C@H](Cc1ccccc1)NC(=O)[C@H](CO)NC(=O)[C@H](C)NC(=O)[C@@H]1CCCN1C(=O)[C@H](CC(N)=O)NC(=O)[C@@H](N)Cc1cnc[nH]1)C(=O)NCC(=O)N[C@@H](CC(C)C)C(=O)N[C@@H](CCSC)C(N)=O (H-HNPASFIGLM-NH2)
